Where two headings read alike, the source gives them in different places.
Assays:
Assay in all cases: Determination of MIC values (BHI broth, 96 well microtiter plate)
Type in all cases: cell-based
Streptococcus pneumoniae = conditions: BHI broth; for MIC: Streptococcus pneumoniae, read-out: MIC S. pneu
In short: (§1)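 Broth microdilution in Brain-Heart Infusion with twofold dilution series from 25 µg/mL final and a no-compound control. Overnight incubation at 37° C in a CO2 atmosphere; visual growth endpoint gives the MIC.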

[1] = system: methicillin-resistant Staphylococcus aureus (MRSA); conditions: Staphylococcus aureus, MRSA, BHI broth, read-out: MIC MRSA
In short: as §1

[2] = system: vancomycin-resistant Enterococcus spp. (VRE); conditions: BHI broth; for MIC: Enterococcus, VRE, read-out: MIC VREF
In short: as §1

[3] = 37° C., overnight (about 16 hours)
[4] = 16 h, 37° C., overnight (about 16 hours)

Row | MIC (Streptococcus pneumoniae; S. pneu, overnight 37° C.) [µg/mL] | MIC ([1]; overnight 37° C.) [µg/mL] | MIC ([2]; VREF, overnight 37° C.) [µg/mL] | MIC ([1]; 16 h, 37° C., about 16 hours) [µg/mL] | MIC ([2]; 16 h, 37° C., about 16 hours) [µg/mL] | MIC (Streptococcus pneumoniae; 37° C., about 16 hours) [µg/mL] | Structure (SMILES) | also measured
1 | > 25 | < 7 | < 25 |  |  |  | NCc1ccc(CNC(=O)c2cc(-c3c[nH]c4ccc(Br)cc34)nc3ccc(C#CCN4CCc5ccccc5C4)cc23)cc1 [Example 240] | 
2 |  |  |  | < 7 | > 25 |  | Clc1ccc2nc(-c3c[nH]c4ccc(Cl)cc34)ccc2c1 [Example 484] | MIC S. pneu (Streptococcus pneumoniae; 37° C., about 16 hours): < 7 µg/mL
3 | > 25 | > 25 | > 25 |  |  |  | NCc1ccc(CNC(=O)c2cc(-c3c[nH]c4ccc(Br)cc34)nc3ccc(/C=C/c4ccccc4)cc23)cc1 [Example 228] | 
4 | < 7 | < 7 | < 7 |  |  |  | NCc1ccc(CNC(=O)c2cc(-c3c[nH]c4ccc(Cl)cc34)nc3ccc(Br)cc23)cc1 [Example 229] | 
5 |  |  |  |  |  |  | Cc1ccc2nc(-c3c[nH]c4ccc(Br)cc34)cc(C(=O)NCc3ccc(CN)cc3)c2c1 [Example 104] | MIC (Streptococcus pneumoniae; [3]): < 7 µg/mL; MIC [1, 4]: < 7 µg/mL; MIC [2, 4]: < 7 µg/mL
6 |  |  |  | < 7 | < 7 | < 7 | NCC(O)CNC(=O)c1cc(-c2c[nH]c3ccc(Br)cc23)nc2cc(Cl)cc(Cl)c12 (stereo not drawn) [Example 533] | 
7 |  |  |  |  |  |  | NCC1CCC(CNC(=O)c2cc(-c3c[nH]c4ccc(Br)cc34)nc3ccc(I)cc23)CC1 (stereo not drawn) [Example 114] | MIC (Streptococcus pneumoniae; [3]): < 7 µg/mL; MIC [1, 4]: < 7 µg/mL; MIC [2, 4]: < 7 µg/mL
8 | < 7 | < 25 | < 25 |  |  |  | NCC1CCC(CNC(=O)c2cc(-c3c[nH]c4ccc(Cl)cc34)nc3ccc(I)cc23)CC1 (stereo not drawn) [Example 226] | 
9 | < 25 | < 7 | < 25 |  |  |  | Cn1cc(-c2cc(C(=O)NCc3ccc(CN)cc3)c3cc(C#CCN4CCCC4)ccc3n2)c2cc(Br)ccc21 [Example 393] | 
10 | > 25 | > 25 | > 25 |  |  |  | N#Cc1ccc2[nH]cc(-c3cc(Cl)c4ccccc4n3)c2c1 [Example 350] | 
11 |  |  |  |  |  |  | Cn1cc(-c2cc(C(=O)NCc3ccc(CN)cc3)c3ccccc3n2)c2cc(Br)ccc21 [Example 119] | MIC (Streptococcus pneumoniae; [3]): < 7 µg/mL; MIC [1, 4]: < 7 µg/mL; MIC [2, 4]: < 25 µg/mL
12 |  |  |  | < 25 | > 25 | < 25 | COc1ccc2nc(-c3c[nH]c4ccc(OC)cc34)ccc2c1 [Example 430] | 
13 | > 25 | > 25 | > 25 |  |  |  | CC(C)(C)OC(=O)n1cc(-c2ccc3cc(I)ccc3n2)c2cc(Br)ccc21 [Example 362] | 
14 | > 25 | < 25 | > 25 |  |  |  | Cn1cc(-c2ccc3cc(Cl)ccc3n2)c2c(F)cccc21 [Example 211] | 
15 |  |  |  | < 7 | < 7 | < 7 | OCc1cc(-c2c[nH]c3ccc(Br)cc23)nc2c(Br)cccc12 [Example 458] | 
16 | < 25 | < 7 | < 25 |  |  |  | CN1CCN(CC#Cc2ccc3nc(-c4cn(C)c5ccc(Br)cc45)cc(C(=O)NCc4ccc(CN)cc4)c3c2)CC1 [Example 395] | 
17 | < 25 | > 25 | < 25 |  |  |  | O=C(O)c1cc(-c2c[nH]c3ccc(Br)cc23)nc2ccc(C#CCNC3CCCCC3)cc12 [Example 233] | 
18 |  |  |  |  |  |  | NCC1CCCC(CNC(=O)c2cc(-c3c[nH]c4ccc(Br)cc34)nc3ccc(Cl)cc23)C1 (stereo not drawn) [Example 132] | MIC (Streptococcus pneumoniae; [3]): < 7 µg/mL; MIC [1, 4]: < 7 µg/mL; MIC [2, 4]: < 7 µg/mL
19 |  |  |  |  |  |  | NCc1ccc(CNC(=O)c2cc(-c3c[nH]c4ccc(Br)cc34)nc3ccccc23)cc1 [compound 9] | MIC (Streptococcus pneumoniae; [3]): < 7 µg/mL; MIC [1, 4]: < 7 µg/mL; MIC [2, 4]: < 7 µg/mL
20 | < 7 | < 7 | < 7 |  |  |  | NCc1ccc(CNC(=O)c2cc(-c3c[nH]c4ccc(Br)cc34)nc3cc(Cl)cc(Cl)c23)cc1 [Example 209] | 
21 | < 7 | < 7 | < 7 |  |  |  | Cn1cc(-c2cc(C(=O)NCC3CCC(CN)CC3)c3ccc(F)cc3n2)c2cc(Br)ccc21 (stereo not drawn) [Example 326] | 
22 |  |  |  | > 25 | > 25 | > 25 | Cc1ccc2nc(-c3c[nH]c4ccccc34)ccc2c1 [Example 481] | 
23 |  |  |  | < 7 | > 25 | < 7 | COc1ccc2nc(-c3c(C)[nH]c4ccc(Cl)cc34)ccc2c1 [Example 429] | 
24 | < 25 | < 7 | < 7 |  |  |  | NCc1ccc(CNC(=O)c2cc(-c3c[nH]c4ccc(Br)cc34)nc3cc(C#CCNCCc4ccc(Cl)cc4)ccc23)cc1 [Example 300] | 
25 |  |  |  | < 7 | > 25 | > 25 | COc1ccc2nc(-c3c[nH]c4ccc(C)cc34)ccc2c1 [Example 415] | 
26 |  |  |  | < 7 | > 25 | < 7 | Clc1ccc2c(Cl)cc(-c3c[nH]c4ccc(OCc5ccccc5)cc34)nc2c1 [Example 477] | 

Row | MIC (Streptococcus pneumoniae; S. pneu, overnight 37° C.) [µg/mL] | MIC ([1]; overnight 37° C.) [µg/mL] | MIC ([2]; VREF, overnight 37° C.) [µg/mL] | MIC ([1]; 16 h, 37° C., about 16 hours) [µg/mL] | MIC ([2]; 16 h, 37° C., about 16 hours) [µg/mL] | MIC (Streptococcus pneumoniae; 37° C., about 16 hours) [µg/mL] | Structure (SMILES) | also measured
27 |  |  |  | < 7 | < 7 | < 7 | CC(C)N(CC#Cc1ccc2nc(-c3cn(C)c4ccc(Br)cc34)cc(C(=O)NCCN)c2c1)C(C)C [Example 408] | 
28 | < 7 | < 7 | < 7 |  |  |  | NCC1CCC(CNC(=O)c2cc(-c3c[nH]c4ccc(Br)cc34)nc3cc(I)ccc23)CC1 (stereo not drawn) [Example 251] | 
29 |  |  |  | < 7 | < 7 | < 7 | CN(C)CCN(C)C(=O)c1cc(-c2c[nH]c3ccc(Br)cc23)nc2ccc(I)cc12 [Example 499] | 
30 |  |  |  | < 7 | < 7 | < 7 | Fc1ccc2c(CCl)cc(-c3c[nH]c4ccc(Br)cc34)nc2c1 [Example 508] | 
31 |  |  |  |  |  |  | O=C(c1cc(-c2c[nH]c3ccc(Br)cc23)nc2ccc(Cl)cc12)N1CCNCC1 [Example 136] | MIC (Streptococcus pneumoniae; [3]): < 7 µg/mL; MIC [1, 4]: < 7 µg/mL; MIC [2, 4]: < 7 µg/mL
32 |  |  |  |  |  |  | COc1ccc(NC(=O)c2cc(-c3c[nH]c4ccc(Br)cc34)nc3ccc(I)cc23)cc1 [Example 174] | MIC (Streptococcus pneumoniae; [3]): < 25 µg/mL; MIC [1, 4]: < 7 µg/mL; MIC [2, 4]: > 25 µg/mL
33 |  |  |  | < 7 | < 7 | < 7 | Cn1cc(-c2cc(C(=O)NCCN)c3cc(C#CCN4CCCC4)ccc3n2)c2cc(Br)ccc21 [Example 403] | 
34 |  |  |  | < 7 | > 25 | < 7 | Cc1ccc2nc(-c3c[nH]c4ccc(OCc5ccccc5)cc34)ccc2c1 [Example 469] | 
35 |  |  |  | > 25 | > 25 | < 25 | Cc1cccc2c(-c3cc(Cl)c4ccc(Cl)cc4n3)c[nH]c12 [Example 476] | 
36 | > 25 | < 7 | < 7 |  |  |  | NCc1ccc(CNC(=O)c2cc(-c3c[nH]c4ccc(Br)cc34)nc3ccc(C#CCN4CCSCC4)cc23)cc1 [Example 239] | 
37 |  |  |  | < 25 | < 25 | < 25 | NCc1ccc(CNC(=O)c2cc(-c3c[nH]c4cc(F)ccc34)nc3cc(F)ccc23)cc1 [Example 493] | 
38 |  |  |  | < 7 |  | < 7 | OCc1cc(-c2c[nH]c3ccc(Br)cc23)nc2ccc(Cl)cc12 [Example 455] | MIC VREF ([2]; 37° C., about 16 hours): <7 µg/mL
39 |  |  |  | > 25 | > 25 | > 25 | COc1ccc2nc(-c3c[nH]c4ccc(OCc5ccccc5)cc34)ccc2c1 [Example 450] | 
40 |  |  |  | < 7 | < 7 | < 7 | OCc1cc(-c2c[nH]c3ccc(Br)cc23)nc2ccc(Br)cc12 [Example 445] | 
41 | < 7 | < 7 | < 7 |  |  |  | Cn1cc(-c2cc(C(=O)NCc3cccc(CN)c3)c3ccccc3n2)c2cc(Br)ccc21 [Example 227] | 
42 |  |  |  | > 25 | > 25 | > 25 | COc1ccc2nc(-c3c(C)[nH]c4ccc(C)cc34)ccc2c1 [Example 431] | 
43 | < 7 | < 7 | < 25 |  |  |  | CCOc1cc(-c2c[nH]c3ccc(Br)cc23)nc2ccc(I)cc12 [Example 364] | 
44 | < 7 | < 7 | < 7 |  |  |  | NCc1ccc(CNC(=O)c2cc(-c3c[nH]c4ccc(Br)cc34)nc3ccc(C#CCNCCc4ccccc4)cc23)cc1 [Example 223] | 
45 |  |  |  | < 7 | < 7 | < 7 | O=C(NCc1cc(-c2c[nH]c3ccc(Br)cc23)nc2cc(Cl)ccc12)NC1CCCCC1 [Example 524] | 
46 | < 7 | < 7 | < 7 |  |  |  | NCC1CCC(CNC(=O)c2cc(-c3c[nH]c4ccc(Br)cc34)nc3cc(Cl)cc(Cl)c23)CC1 (stereo not drawn) [Example 247] | 
47 |  |  |  |  |  |  | Cc1ccc2c(C(=O)NCc3ccc(CN)cc3)cc(-c3c[nH]c4ccc(Br)cc34)nc2c1 [Example 161] | MIC (Streptococcus pneumoniae; [3]): < 7 µg/mL; MIC [1, 4]: < 7 µg/mL; MIC [2, 4]: < 7 µg/mL
48 | < 7 | < 7 | < 7 |  |  |  | NCc1ccc(CNC(=O)c2cc(-c3c[nH]c4ccc(Br)cc34)nc3ccccc23)cc1 [Example 283] | 
49 |  |  |  | < 7 | > 25 | < 7 | COc1ccc(NC(=O)NCc2cc(-c3c[nH]c4ccc(Br)cc34)nc3cc(Cl)ccc23)cc1 [Example 514] | 
50 |  |  |  | < 7 | < 7 | < 7 | NCCNC(=O)c1cc(-c2c[nH]c3ccc(Br)cc23)nc2cc(Cl)c(C#CCN3CC=CCC3)cc12 [Example 529] | 
51 | < 25 | < 25 | > 25 |  |  |  | Clc1cc(-c2c[nH]c3c(Br)cccc23)nc2ccccc12 [Example 346] | 
52 | < 7 | < 7 | < 25 |  |  |  | NCc1ccc(CNC(=O)c2cc(-c3c[nH]c4ccc(Br)cc34)nc3ccc(F)cc23)cc1 [Example 253] | 
